In patent publication US20120225417A1, “Methods, Compositions and Kits for the Evaluation and Preservation of Sperm” (I'Alliance Boviteq Inc., priority 2011, published 2012):

Columns and labels:
Format in all cases: biochemical
[1] = system: 3′-5′ cAMP-PDE activity in bovine spermatozoa; experiment: 3′-5′ cAMP-PDE assay with family-specific PDE inhibitors in bovine spermatozoa; settings: for Percentage of family specific sensitive PDE activity, 3 h Egg yolk: bovine spermatozoa after 3 h in egg yolk based cryoprotectant at 18° C.; for Percentage of family specific sensitive PDE activity, 3 h Liquid semen: bovine spermatozoa after 3 h in liquid semen extender at 18° C.; for Percentage of family specific sensitive PDE activity, 3 h 4° C.: bovine spermatozoa after 3 h in seminal plasma at 4° C.; for Percentage of family specific sensitive PDE activity, 3 h 18° C.: bovine spermatozoa after 3 h in seminal plasma at 18° C.; for Percentage of family specific sensitive PDE activity, Fresh: bovine spermatozoa rapidly after ejaculation (0 h); for Percentage of total PDE activity sensitive to the inhibitor: cilostamide 10 μM, rolipram 10 μM, papaverine 400 nM (FIG. 12B); for Percentage of sensitive PDE activity, Cryo (B): cryopreserved bovine spermatozoa; for Percentage of sensitive PDE activity, Cryo (B) / Percentage of sensitive PDE activity, Fresh (A): Cil 10 μM, Rol 10 μM, Papa 400 nM; for Percentage of sensitive PDE activity, Fresh (A): freshly ejaculated bovine spermatozoa
Protocol: The semen was obtained from different Holstein bulls. The fresh ejaculated semen was kept in an insulated thermos flask, at 18° C., during transportation to the laboratory and processed within 3 hours after collection. The cryopreserved semen was obtained at the Centre d'Insémination […] du Québec (CIAQ) […]. The cryopreserved straws of semen were prepared according to CIAQ procedures. […] After cutting one end of the straw the semen was collected in a 15 ml falcon while cutting the other end. From this point fresh and cryopreserved semen were processed similarly. Approximately 50 μL of the semen was added to 5 mL of Talp-BSA medium in a 15 mL falcon tube to wash the spermatozoa. After centrifugation (280×g, 10 min, room temperature), the remaining pellet of approximately 100 μL was resuspended in Talp-BSA medium (500 μl for the fresh and 200 μl for two straws) to reach a concentration of 1×10^6 cells/10 μL. The samples were then vortex-agitated for 30 sec and kept on the ice until ready to run the assay. The concentration of sperm cells was measured according to hemacytometer method. The cAMP enzymatic assay (PDE assay) was conducted as previously described ([…]. et al., (2006). […] J. et al., (1979). Adv Cyclic Nucleotide Res 10, 69-92) with minor modifications. […] Measurements were also performed in the presence of PDE inhibitors: […] Cilostamide and Rolipram were purchased from Biomol. […] Each PDE assay was performed in triplicate for each experiment and each experiment was repeated at least three times. As described ([…]. et al., (2009). […] IBMX-sensitive PDE5 and PDE6 and IBMX-insensitive PDE9 activities are absent from these groups because cGMP is the specific substrate and then are not detected in the cAMP-PDE assay. […] J Dairy Sci 92, 3757-3765; […]., et al. (2007). Endocrinology 148, 1858-1867; Siuciak, J. A. et al., (2006). Neuropharmacology 51, 386-396).

[2] = system: 3′-5′ cAMP-PDE activity in human seminal plasma; experiment: 3′-5′ cAMP-PDE assay with family-specific PDE inhibitors in human seminal plasma; settings: fresh human seminal plasma; Rolipram 10 μM, Papaverine 400 nM (FIG. 19)
Protocol: A certain amount of complete ejaculate was kept to isolate spermatozoa from seminal plasma. This portion was centrifuged at 400×g during 10 minutes at room temperature to gently pull down spermatozoa. Supernatant was transferred and centrifuged again at 6 000×g at 4° C. during 20 minutes to pull down any remaining spermatozoa. Supernatant was then transferred and centrifuged at 6 000×g at 4° C. during 20 minutes to remove any remaining debris. SP samples were kept on ice until used for PDE assay and stored at -80° C. for further characterization. The cAMP enzymatic assay (PDE assay) was conducted as previously described ([…]. et al., (2006). BMC developmental biology 6, 47). […] J. et al., (1979). Adv Cyclic Nucleotide Res 10, 69-92) with minor modifications. […] Measurements were also performed in the presence of PDE inhibitors: […] Cilostamide and Rolipram were purchased from Biomol. […] Each PDE assay was performed in triplicate for each experiment and each experiment was repeated at least three times. As described ([…]. et al., (2009). […] IBMX-sensitive PDE5 and PDE6 and IBMX-insensitive PDE9 activities are absent from these groups because cGMP is the specific substrate and then are not detected in the cAMP-PDE assay. […] J Dairy Sci 92, 3757-3765; […]., et al. (2007). Endocrinology 148, 1858-1867; Siuciak, J. A. et al., (2006). Neuropharmacology 51, 386-396).

[3] = system: 3′-5′ cAMP-PDE activity in bovine testis, caput, cauda and seminal vesicles homogenates; experiment: 3′-5′ cAMP-PDE assay in bovine testis, caput, cauda and seminal vesicles homogenates; settings: Rol 10 μM, Papa 400 nM (FIG. 3)
Protocol: After thoroughly vortex-agitating for about one minute, samples were centrifuged at 10 000×g for 4 minutes at room temperature. Supernatant fluid was collected and diluted in different volumes of hypotonic buffer depending on the tissue. Testis, caput and cauda homogenates were diluted in 1 mL of hypotonic buffer while seminal vesicle homogenates were diluted in 2 mL of hypotonic buffer. Homogenates were kept on ice until subjected to PDE assay. The cAMP enzymatic assay (PDE assay) was conducted as previously described ([…]. et al., (2006). BMC developmental biology 6, 47). […] J. et al., (1979). Adv Cyclic Nucleotide Res 10, 69-92) with minor modifications. […] Measurements were also performed in the presence of PDE inhibitors: […] Cilostamide and Rolipram were purchased from Biomol. […] Each PDE assay was performed in triplicate for each experiment and each experiment was repeated at least three times. As described ([…]. et al., (2009). […] IBMX-sensitive PDE5 and PDE6 and IBMX-insensitive PDE9 activities are absent from these groups because cGMP is the specific substrate and then are not detected in the cAMP-PDE assay. […] J Dairy Sci 92, 3757-3765; […]., et al. (2007). Endocrinology 148, 1858-1867; Siuciak, J. A. et al., (2006). Neuropharmacology 51, 386-396).

[4] = bovine spermatozoa, 1 μM cAMP, IBMX 1 mM

SMILES | Percentage of family specific sensitive PDE activity, 3 h Egg yolk [1] | Percentage of family specific sensitive PDE activity, 3 h Liquid semen [1] | Percentage of family specific sensitive PDE activity, 3 h 4° C. [1] | Percentage of family specific sensitive PDE activity, 3 h 18° C. [1] | Percentage of family specific sensitive PDE activity, Fresh [1] | Percentage of total PDE activity that is IBMX-insensitive (PDE8) [1, 4] | Percentage of total PDE activity sensitive to the inhibitor [1, 4] | Percentage of sensitive PDE activity, Cryo (B) ([1]; IBMX 1 mM) | Percentage of sensitive PDE activity, Fresh (A) ([1]; IBMX 1 mM) | Increase of the inhibited proportion of cAMP-PDE activity relative to papaverine ([1]; freshly ejaculated bovine spermatozoa (FIG. 21)) | Inhibitor-sensitive PDE activity in human seminal plasma (in words) [2] | Inhibitor-sensitive PDE activity in bovine male reproductive tissues (in words) [3]
CC(C)Cn1c(=O)n(C)c(=O)c2[nH]cnc21 [IBMX, 3-isobutyl-1-methylxanthine] | 96% | 96% | 96% | 95% | 95% | 8% | 92% | 96% | 94% | – | – | –
OCCN(CCO)c1nc(N2CCCCC2)c2nc(N(CCO)CCO)nc(N3CCCCC3)c2n1 [dipyridamol, dipyridamole] | – | – | – | – | – | – | – | – | – | 10% | – | –
COc1ccc(C2CNC(=O)C2)cc1OC1CCCC1 (stereo not shown) [Rolipram] | 18% | 11% | 12% | 9% | 11% | – | 11% | 10% | 12% | – | high | highly functional
CN(C(=O)CCCOc1ccc2[nH]c(=O)ccc2c1)C1CCCCC1 [Cilostamide] | 24% | 7% | 11% | 20% | 13% | – | 9% | 5% | 14% | – | – | –
